Assay results taken from PubChem BioAssay AID248 (DTP/NCI, 2004).
Inconclusive results and toxic doses are left out. Rule as the data show it: active = T/C of 150% or more; inactive = T/C below 125%.

Tested on: L1210 leukemia ip in BDF1 mice, survival T/C
Test: NCI In Vivo Anticancer Drug Screen. Data for tumor model L1210 Leukemia (intraperitoneal) in B6D2F1 (BDF1) mice
Details: endpoint: mean survival time, higher = longer survival
Outline: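 Value reflects the ratio of survival in compound-treated mice to survival in vehicle-treated controls, with both groups carrying the same transplanted tumor.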

[1] = dose: 100.0 mg/kg/injection, schedule: Q01DX001 (ip), vehicle: saline
[2] = dose: 200.0 mg/kg/injection, schedule: Q01DX001 (ip), vehicle: saline
[3] = dose: 400.0 mg/kg/injection, schedule: Q01DX001 (ip), vehicle: saline
[4] = dose: 100.0 mg/kg/injection, schedule: Q04DX003 (ip), vehicle: saline with Tween-80

Measured: T/C

CCCCC(=O)N/N=C/c1ccc(O)cc1O
inactive: [1] 97 % of control | [2] 92 % of control | [3] 94 % of control

CCN(CC)CCOC(=O)c1ccccc1S(N)(=O)=O
inactive: [1] 104 % of control | [2] 101 % of control | [3] 98 % of control

CCC1COC(=S)N1 (stereo unspecified)
inactive: dose: 6.25 mg/kg/injection, schedule: Q01DX001 (ip), vehicle: Klucel (hydroxypropylcellulose) (HPC) 93 % of control | dose: 6.25 mg/kg/injection, schedule: Q01DX009 (ip), vehicle: saline 91 % of control | dose: 12.5 mg/kg/injection, schedule: Q01DX001 (ip), vehicle: Klucel (hydroxypropylcellulose) (HPC) 108 % of control | dose: 12.5 mg/kg/injection, schedule: Q01DX009 (ip), vehicle: saline 105 % of control | dose: 25.0 mg/kg/injection, schedule: Q01DX001 (ip), vehicle: Klucel (hydroxypropylcellulose) (HPC) 100 % of control | dose: 25.0 mg/kg/injection, schedule: Q04DX002 (ip), vehicle: saline with Tween-80 103 % of control

COc1ccccc1/C(=C/c1ccc([N+](=O)[O-])cc1)C(=O)Nc1ccc(S(=O)(=O)F)cc1
inactive: dose: 100.0 mg/kg/injection, schedule: Q01DX009 (ip), vehicle: Klucel (hydroxypropylcellulose) (HPC) 103 % of control | dose: 200.0 mg/kg/injection, schedule: Q01DX009 (ip), vehicle: Klucel (hydroxypropylcellulose) (HPC) 92 % of control | dose: 400.0 mg/kg/injection, schedule: Q01DX009 (ip), vehicle: Klucel (hydroxypropylcellulose) (HPC) 100 % of control

CCOP(=O)(NCCCOC)OCC
inactive: dose: 0.78 mg/kg/injection, schedule: Q01DX009 (ip), vehicle: acetone 96 % of control | dose: 1.56 mg/kg/injection, schedule: Q01DX009 (ip), vehicle: acetone 100 % of control | dose: 3.12 mg/kg/injection, schedule: Q01DX009 (ip), vehicle: acetone 91 % of control | dose: 3.12 mg/kg/injection, schedule: Q04DX003 (ip), vehicle: saline 93 % of control | dose: 4.6 mg/kg/injection, schedule: Q01DX009 (ip), vehicle: saline 95 % of control | dose: 7.0 mg/kg/injection, schedule: Q01DX009 (ip), vehicle: saline 98 % of control | dose: 10.5 mg/kg/injection, schedule: Q01DX009 (ip), vehicle: saline 95 % of control | dose: 12.5 mg/kg/injection, schedule: Q01DX001 (ip), vehicle: acetone 94 % of control | dose: 15.0 mg/kg/injection, schedule: Q01DX009 (ip), vehicle: acetone 94 % of control | dose: 23.0 mg/kg/injection, schedule: Q01DX009 (ip), vehicle: acetone 94 % of control

C=C(c1cn(C(C)=O)c2ccccc12)c1cn(C(C)=O)c2ccccc12
inactive: [4] 95 % of control

CCOC(OCC)c1c(Cl)cccc1Cl
inactive: dose: 100.0 mg/kg/injection, schedule: Q01DX009 (ip), vehicle: saline with Tween-80 98 % of control | [4] 99 % of control | dose: 200.0 mg/kg/injection, schedule: Q01DX009 (ip), vehicle: saline with Tween-80 88 % of control | dose: 200.0 mg/kg/injection, schedule: Q04DX003 (ip), vehicle: saline with Tween-80 93 % of control | dose: 400.0 mg/kg/injection, schedule: Q01DX009 (ip), vehicle: saline with Tween-80 101 % of control | dose: 400.0 mg/kg/injection, schedule: Q04DX003 (ip), vehicle: saline with Tween-80 93 % of control

Cc1nc(N)[nH]c(=O)c1CCCNc1ccc(/C=C/C2(CCl)OCCO2)cc1
inactive: dose: 50.0 mg/kg/injection, schedule: Q01DX Z (ip), vehicle: carboxymethylcellulose (CMC) 92 % of control | dose: 200.0 mg/kg/injection, schedule: Q01DX Z (ip), vehicle: carboxymethylcellulose (CMC) 97 % of control | dose: 400.0 mg/kg/injection, schedule: Q01DX Z (ip), vehicle: carboxymethylcellulose (CMC) 94 % of control

CNCC(OC)c1ccc(O)c(O)c1 (stereo unspecified)
inactive: dose: 100.0 mg/kg/injection, schedule: Q01DX009 (ip), vehicle: saline 105 % of control | dose: 100.0 mg/kg/injection, schedule: Q04DX003 (ip), vehicle: saline 108 % of control | dose: 200.0 mg/kg/injection, schedule: Q01DX009 (ip), vehicle: saline 105 % of control | dose: 200.0 mg/kg/injection, schedule: Q04DX003 (ip), vehicle: saline 106 % of control | dose: 400.0 mg/kg/injection, schedule: Q04DX003 (ip), vehicle: saline 108 % of control

CSc1nc(C(Cl)Cl)cnc1Cl
inactive: dose: 100.0 mg/kg/injection, schedule: Q04DX002 (ip), vehicle: Klucel (hydroxypropylcellulose) (HPC) 102 % of control | dose: 200.0 mg/kg/injection, schedule: Q04DX002 (ip), vehicle: Klucel (hydroxypropylcellulose) (HPC) 91 % of control | dose: 400.0 mg/kg/injection, schedule: Q04DX002 (ip), vehicle: Klucel (hydroxypropylcellulose) (HPC) 105 % of control

FC(F)(F)/C([S-])=C(/[S-])C(F)(F)F.FC(F)(F)/C([S-])=C(/[S-])C(F)(F)F.FC(F)(F)/C([S-])=C(/[S-])C(F)(F)F.FC(F)(F)/C([S-])=C(/[S-])C(F)(F)F.[Co+3].[Co+3]
inactive: dose: 12.5 mg/kg/injection, schedule: Q01DX009 (ip), vehicle: other 113 % of control | dose: 25.0 mg/kg/injection, schedule: Q01DX009 (ip), vehicle: other 104 % of control

O=C(N/N=C\c1cc(Cl)ccc1[N+](=O)[O-])c1ccccc1
inactive: dose: 100.0 mg/kg/injection, schedule: Q04DX003 (ip), vehicle: Klucel (hydroxypropylcellulose) (HPC) 97 % of control | dose: 200.0 mg/kg/injection, schedule: Q04DX003 (ip), vehicle: Klucel (hydroxypropylcellulose) (HPC) 97 % of control | dose: 400.0 mg/kg/injection, schedule: Q04DX003 (ip), vehicle: Klucel (hydroxypropylcellulose) (HPC) 103 % of control

Cc1cc(C(=O)O)ccc1Cl
inactive: dose: 100.0 mg/kg/injection, schedule: Q04DX003 (ip), vehicle: other 101 % of control | dose: 200.0 mg/kg/injection, schedule: Q04DX003 (ip), vehicle: other 101 % of control | dose: 400.0 mg/kg/injection, schedule: Q04DX003 (ip), vehicle: other 103 % of control

C[n+]1ccc(/C=C/Nc2cccc(N)n2)cc1
inactive: dose: 75.0 mg/kg/injection, schedule: Q01DX001 (ip), vehicle: saline 96 % of control | dose: 150.0 mg/kg/injection, schedule: Q01DX001 (ip), vehicle: saline 102 % of control

CCC(=O)OC1(c2ccccc2)CCN(CCNc2ccccc2)CC1
inactive: dose: 20.0 mg/kg/injection, schedule: Q04DX003 (ip), vehicle: Klucel (hydroxypropylcellulose) (HPC) 100 % of control | dose: 40.0 mg/kg/injection, schedule: Q04DX003 (ip), vehicle: Klucel (hydroxypropylcellulose) (HPC) 103 % of control | dose: 80.0 mg/kg/injection, schedule: Q04DX003 (ip), vehicle: Klucel (hydroxypropylcellulose) (HPC) 105 % of control

CC(I)CNc1ccc(C(=O)O)c(O)c1 (stereo unspecified)
inactive: dose: 100.0 mg/kg/injection, schedule: Q04DX003 (ip), vehicle: gum acacia 97 % of control | dose: 200.0 mg/kg/injection, schedule: Q04DX003 (ip), vehicle: gum acacia 89 % of control | dose: 400.0 mg/kg/injection, schedule: Q04DX003 (ip), vehicle: gum acacia 94 % of control

COc1ccc(N(N=Nc2ccccc2)C(C)=O)cc1
inactive: dose: 40.0 mg/kg/injection, schedule: Q01DX009 (ip), vehicle: Klucel (hydroxypropylcellulose) (HPC) 96 % of control | dose: 75.0 mg/kg/injection, schedule: Q01DX001 (ip), vehicle: Klucel (hydroxypropylcellulose) (HPC) 96 % of control | dose: 75.0 mg/kg/injection, schedule: Q01DX009 (ip), vehicle: Klucel (hydroxypropylcellulose) (HPC) 101 % of control | dose: 150.0 mg/kg/injection, schedule: Q01DX001 (ip), vehicle: Klucel (hydroxypropylcellulose) (HPC) 90 % of control | dose: 150.0 mg/kg/injection, schedule: Q01DX009 (ip), vehicle: Klucel (hydroxypropylcellulose) (HPC) 112 % of control | dose: 300.0 mg/kg/injection, schedule: Q01DX001 (ip), vehicle: Klucel (hydroxypropylcellulose) (HPC) 86 % of control

CCSC1OC(COC(C)=O)C(OC(C)=O)C1NC(C)=O (stereo unspecified)
inactive: dose: 50.0 mg/kg/injection, schedule: Q01DX001 (ip), vehicle: saline 103 % of control | [1] 113 % of control | [2] 97 % of control | [3] 107 % of control

CC(C)P(=O)(CCP(=O)(c1ccccc1)c1ccccc1)c1ccccc1 (stereo unspecified)
inactive: dose: 50.0 mg/kg/injection, schedule: Q04DX002 (ip), vehicle: saline with Tween-80 106 % of control | dose: 100.0 mg/kg/injection, schedule: Q04DX002 (ip), vehicle: saline with Tween-80 100 % of control | dose: 200.0 mg/kg/injection, schedule: Q04DX002 (ip), vehicle: saline with Tween-80 87 % of control

COc1ccc(C(=O)CCC(=O)O)cc1OC
inactive: dose: 50.0 mg/kg/injection, schedule: Q01DX001 (ip), vehicle: carboxymethylcellulose (CMC) 97 % of control | dose: 100.0 mg/kg/injection, schedule: Q01DX001 (ip), vehicle: carboxymethylcellulose (CMC) 100 % of control | dose: 200.0 mg/kg/injection, schedule: Q01DX001 (ip), vehicle: carboxymethylcellulose (CMC) 92 % of control | dose: 400.0 mg/kg/injection, schedule: Q01DX001 (ip), vehicle: carboxymethylcellulose (CMC) 92 % of control
